Source: patent US7053194B2, “Compositions and methods for p53-mediated repression of gene expression” (Fox Chase Cancer Center, priority 1999, dated 2006)

Experiments:
MCF-7 cells = test: Immunoprecipitation-western analysis of p53 and p53-mSin3a complexes; format: cell-based, human
Protocol: Sub-confluent cultures of MCF 7 and A2780 cells were treated with 100 nM trichostatin A (TSA, Sigma)for 2 hours, followed by incubation with 0.5 ug/ml adriamycin (doxorubicin, Sigma) for the indicated timepoints. Va15 cells grown at 39 degrees were treated with 100 nM TSA for two hours, followed by temperature shift to 32 degrees for 12 hours. p53 induction was monitored by western analysis of 100 ug protein as described (Murphy et al., Genes & Devel. 10:2971–2980, 1996), using 0.1ug/ml DO-1 (Ab-6, Calbiochem) or 421 (Ab-1, Calbiochem). MDM2 induction was monitored using the monoclonal antibody 2A10, kindly provided by Arnold Levine (Rockefeller University). For UV treatments, cells were irradiated with 4 J/m2 of UV-C with a Spectroline X series ultraviolet lamp, and output was monitored with a traceable UV light meter (Fisher Scientific). For ALLN treatment, MCF-7 cells were treated with 50 uM ALLN (calpain I inhibitor, Sigma) made in DMSO (dimethyl sulfoxide, Sigma) or with DMSO alone for 2 hours prior to harvesting.
Sub-confluent cultures of cells were harvested and lysed in NP-40 buffer supplemented with protease inhibitors (1 mM PMSF, 10 ug/ml pepstatin A, 10 ug/ml aprotinin, and 5ug/ml leupeptin). Protein concentrations were determined by the method of Bradford (BioRad). Equal ug amounts of protein (between 2.0 and 3.0 mg) were immunoprecipitated with 1 ug of each antibody, except for Va15 immunoprecipitations, which used 1000 ug protein, as described (Murphy et al., Genes & Devel. 10:2971–2980, 1996). For p300, antibody N15 (Santa Cruz Biotechnology) and AB-1 (Calbiochem) yielded similar results. Each IP was washed twice in NP-40 buffer (Wu, et al., Genes & Devel. 7:1126–1132, 1993), followed by 2 washes in RIPA buffer (50 mM Tris pH 7.4/150 mM NaCl/1% Triton X 100/0.1% SDSI 1% Na deoxycholate). Immunoprecipitations were run on 7.5–10% SDS-PAGE gels and transferred overnight onto Immuno-Blot PVDF membrane (BioRad). […]
These complexes persisted under stringent washing conditions (RIPA buffer washes, see Materials and Methods), and were not present using control antisera (rabbit IgG, lane 1). […] We next analyzed the p53-mSin3a interaction following post-translational stabilization of p53 mediated by DNA damaging agents. […]
We next analyzed the time-course of the p53-mSin3a interaction following exposure of cells to the DNA damaging agent adriamycin (doxorubicin). Both p53-mSin3a and p53 p300 complexes were monitored by IP-western analysis in a time course following adriamycin treatment of MCF-7 cells. As a control, p53 was immunoprecipitated using polyclonal antisera generated against full-length p53 (Santa Cruz Biotechnology). p53 levels were also assessed at each time point by western analyses (data not shown). […]

melanoma cells (CaCl) = test: Northern analysis of survivin mRNA after doxorubicin; format: cell-based, human; conditions: 0.5 ug/mL doxorubicin, as early as twelve hours
Protocol: MCF-7 cells were maintained in RPMI-1640 supplemented with 10% fetal bovine serum and 100 units/ml of penicillin and streptomycin. The human melanoma cell line CaCl, and the derivative clone expressing the HPV E6 gene, were cultured as described (Ahn et al., Oncogene). The human osteosarcoma cell lines Saos-2 and U2-OS (kindly provided by Peter Adams, Fox Chase Cancer Center), the murine p21 knock-out fibroblasts (kindly provided by James Sherley, MIT) and the human lung adenocarcinoma cell line H1299 were cultured in DMEM supplemented with 10% fetal bovine serum and 100 units/ml of penicillin and streptomycin. Murine Va15 cells, containing the temperature-sensitive Valine 135 allele of p53, were maintained as described (Wu, et al., Genes & Devel. 7:1126–1132, 1993). All cells were grown at 37° C. […] For treatment with ultra-violet light, cells were irradiated with 0–10 J/m2 (as noted) of UV-C with a Spectroline X series ultraviolet lamp, and output was monitored with a traceable UV light meter (Fisher Scientific). […]
The full-length coding region for survivin was generated by reverse transcription-polymerase chain reaction (RT-PCR) using 5 ug of total RNA from the H1299 human lung adenocarcinoma cell line, using the Access RT-PCR kit (Promega) and the following oligonucleotides: forward 5′ […] […] Autoradiographs were quantitated using NIH image software. […]

With `COc1cccc2c1C(=O)c1c(O)c3c(c(O)c1C2=O)C[C@@](O)(C(=O)CO)C[C@@H]3O[C@H]1C[C@H](N)[C@H](O)[C@H](C)O1` [adriamycin, doxorubicin] the “total p53 protein” value (MCF-7 cells; MCF-7, adriamycin, four and eight hours of treatment) was “significant increase in total p53 protein”, the “amount of p53 in mSin3a complexes, increase” value (MCF-7 cells; MCF-7 treated with doxorubicin) was “approximately five-fold greater” and the “mRNA levels for survivin” value (melanoma cells (CaCl)) was “marked decreases in mRNA levels for survivin”.
